# Measurements published in patent US6794406B2, “Indole derivatives” (Bayer Aktiengesellschaft, priority 2000, dated 2004).
# System: luciferase gene under the control of a thyroid hormone-regulated promoter (TRE) in HepG2 hepatocarcinoma cell
# Assay: T3 promoter assay cell test
# Type: cell-based
# Settings: stably transfected human HepG2 cells; luciferase induction; incubated 48 or 72 hours with costimulator retinolic acid; four replicates
# Description: The efficacy of the compounds according to the invention can be tested, for example, in vitro by the T3 promoter assay cell test described below:
# The test is carried out using a stably transfected, human HepG2 hepatocarcinoma cell which expresses a luciferase gene under the control of a thyroid hormone-regulated promoter. The vector used for the transfection carries, ahead of the luciferase gene, a minimal thymidine kinase promoter having a thyroid hormone-responsive element (TRE), which consists of two inverted palindromes of 12 Bp each and an 8 Bp spacer.
# For the test, the cell cultures are inoculated into 96 well plates in Eagle's Minimal Essential Medium with the following additives: glutamine, tricine [N-(tris(hydroxymethyl)methyl)glycine], sodium pyruvate, non-essential amino acids (L-Ala, L-Asn, L-Asp, L-Pro, L-Ser, L-Glu, Gly), insulin, selenium and transferrin. The cultures are grown for 48 hours at 37° C. and under a 10% CO2 atmosphere. Serial dilutions of test substance or reference compound (T3, T4) and costimulator retinolic acid are then added to the test cultures and these are incubated as beforehand for a further 48 or 72 hours. Each substance concentration is tested in four replicates. For the determination of the luciferase induced by T3 or other substances, the cells are then lysed by addition of a Triton- and luciferin-containing buffer (from Promega) and immediately measured luminometrically. The EC50 values of each compound are calculated.
row,SMILES,EC50 [nM]
1,"Cc1cc(NCC(=O)O)cc(C)c1Oc1ccc2[nH]cc(C(C)C)c2c1 [Example 5, N-{4-[(3-Isopropyl-1H-indol-5-yl)oxy]-3,5-dimethylphenyl}glycine]",22
2,"Cc1cc(NC(=O)CC(=O)O)cc(Cl)c1Oc1ccc2[nH]cc(C(C)C)c2c1 [Example 6, 3-({3-Chloro-4-[(3-isopropyl-1H-indol-5-yl)oxy]-5-methylphenyl}amino)-3-oxo-propionic acid]",8
3,"CC(C)c1c[nH]c2ccc(Oc3c(C(F)(F)F)cc(CC(=O)O)cc3C(F)(F)F)cc12 [Example 11, 4-(3-Isopropyl-1H-indol-5-yloxy)-3,5-bis-trifluoromethylphenylacetic acid]",0.5
4,"CC(C)c1c[nH]c2ccc(Oc3c(C(F)(F)F)cc(CCC(=O)O)cc3C(F)(F)F)cc12 [Example 15, 4-(3-Isopropyl-1H-indol-5-yloxy)-3,5-bis-trifluoromethylphenylpropionic acid]",4
5,"Cc1cc(OCC(=O)O)cc(C)c1Oc1ccc2[nH]cc(C(C)C)c2c1 [Example 16, {4-[(3-Isopropyl-1H-indol-5-yl)oxy]-3,5-dimethylphenoxy}acetic acid]",21
